# Test system: mouse B16F10 melanoma cells
# Test: melanin content and cell pellet color of mouse B16F10 melanoma cells cultured 6 days
# Format: cell-based
# Parameters: key to Vidjual color determination of cell pellet (score 5 black to 1 white, 0 not detectable): A Vidjual score of 5 means the cell pellet was black; A Vidjual score of 1 means the cell pellet was white; A Vidjual score of 0 means the cell pellet was not detectable, i.e. it has no color at all
# Conditions: Sodium lactate positive control; for Vidjual color determination of cell pellet (score 5 black to 1 white, 0 not detectable): 25 mM or 50 mM level; for total melanin content per microgram of protein: added at either 25 mM or 50 mM level
structure (smiles),measurement,setting,value
"CC(O)C(=O)[O-].[Na+] (stereo not shown) [Positive Control, Sodium lactate]","Vidjual color determination of cell pellet (score 5 black to 1 white, 0 not detectable)",table row 0.5 v/v %,3
same,total melanin content per microgram of protein,table row 0.5 v/v %,0.240 micrograms per microgram of pr
same,"Vidjual color determination of cell pellet (score 5 black to 1 white, 0 not detectable)",table row 1.0 v/v %,1
same,total melanin content per microgram of protein,table row 1.0 v/v %,0.107 micrograms per microgram of pr

# Reference: US7097866B2, “Composition and method to whiten and exfoliate skin” (Desert Whale Jojoba Company, priority 2002, dated 2006)
